In patent US20260007133A1, “HERBICIDAL COMPOSITION COMPRISING AZINE COMPOUNDS” (BASF SE, priority 2022, published 2026):
Read-outs that look alike come from different tables or passages of the source.

What was measured:
Type in all cases: in vivo
Abutilon theophrasti = experiment: Greenhouse post-emergence (POST) herbicidal test on ABUTH; settings: Abutilon theophrasti, post-emergence, POST, ABUTH; for inhibition at 2 g/ha: use rate 2 gai/ha, read-out: % activity
In short: (§1)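 For this test, compounds formulated as a 5% by weight emulsion concentrate were diluted into spray liquor and applied post-emergence. Species were kept at 10-25° C or 20-35° C and injury was scored at 20 DAT on a 0–100 scale.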

Galium aparine = experiment: Greenhouse pre-emergence (PRE) herbicidal test on GALAP; settings: Galium aparine, pre-emergence; PRE; GALAP; use rate 1 gai/ha
In short: (§2)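 Seeds sown per species in pots of loamy sand with approx. 3.0% humus; compounds suspended or emulsified in water were sprayed via fine nozzles directly after sowing. Pots were watered and hooded until rooted, held at 10-25° C. or 20-35° C. by species, and scored 0–100 (100 = no emergence/complete destruction) 20 DAT.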

Euphorbia heterophylla = experiment: Greenhouse post-emergence (POST) herbicidal test on EPHHL; settings: Euphorbia heterophylla, post-emergence, POST, EPHHL; for inhibition at 2 g/ha: use rate 2 gai/ha, read-out: % activity
In short: as §1

Ipomoea hederacea = experiment: Greenhouse pre-emergence (PRE) herbicidal test on IPOHE; settings: PRE, IPOHE, 20 DAT
In short: as §2

Digitaria sanguinalis = experiment: Greenhouse post-emergence (POST) herbicidal test on DIGSA; settings: Digitaria sanguinalis, post-emergence; for inhibition at 2 g/ha: use rate 2 gai/ha; for inhibition at 2 g/ha / inhibition at 1 g/ha: read-out: % activity; for inhibition at 4 g/ha: use rate 4 gai/ha; for inhibition at 1 g/ha: use rate 1 gai/ha
In short: as §1

SETFA = experiment: Greenhouse pre-emergence (PRE) herbicidal test on SETFA; settings: Setaria faberi, use rate 1 gai/ha
Polygonum convolvulus = experiment: Greenhouse pre-emergence (PRE) herbicidal test on POLCO; settings: Fallopia convolvulus, pre-emergence, use rate 1 gai/ha
Excerpt: (§3) The culture containers used were plastic pots containing loamy sand with approximately 3.0% of humus as substrate. The seeds of the test plants were sown separately for each species.
For the pre-emergence treatment, the active compounds, suspended or emulsified in water, were applied directly after sowing by means of finely distributing nozzles. The containers were irrigated gently to promote germination and growth and subsequently covered with transparent plastic hoods until the plants had rooted. This cover caused uniform germination of the test plants unless this was adversely affected by the active compounds.
(§4) Depending on the species, the plants were kept at 10-25° C. and 20-35° C., respectively.
(§5) The test period extended over 2 to 4 weeks. During this time, the plants were tended and their response to the individual treatments was evaluated.
(§6) Evaluation was carried out using a scale from 0 to 100. 100 means no emergence of the plants, or complete destruction of at least the above-ground parts, and 0 means no damage or normal course of growth. A good herbicidal activity is given at values of at least 70, and very good herbicidal activity is given at values of at least 85.
(§7) If not stated differently, the respective components A and B, and if appropriate, C were formulated as a 5% by weight strength emulsion concentrate and, with addition of the amount of solvent system, introduced into the spray liquor used for applying the active compound.
(§8) As indicated application was either post emergent (POST) at the respective growth stage (GS) of the weed (BBCH code), or pre-emergent (PRE).
(§9) Assessment was 20 days after treatment (DAT).

Geranium pusillum = experiment: Greenhouse post-emergence (POST) herbicidal test on GERPU; settings: Geranium pusillum, post-emergence; for inhibition at 4 g/ha: use rate 4 gai/ha
In short: as §1

Setaria viridis = experiment: Greenhouse post-emergence (POST) herbicidal test on SETVI; settings: 480 h, 20 DAT
Experimental: as §3
(§10) For the post-emergence treatment, the test plants were grown to a plant height of from 3 to 15 cm, depending on the plant habit, and only then treated with the active compounds which had been suspended or emulsified in water. To this end, the test plants were either sown directly, and grown in the same containers, or they were first grown separately as seedlings and transplanted into the test containers a few days prior to treatment.
as §4, §5, §6, §7, §8, §9

Commelina benghalensis = experiment: Greenhouse post-emergence (POST) herbicidal test on COMBE; settings: 480 h, use rate 16 gai/ha, 20 DAT
Experimental: as §3, §10, §4, §5, §6, §7, §8, §9

Ambrosia artemisiifolia = experiment: Greenhouse pre-emergence (PRE) herbicidal test on AMBEL; settings: Ambrosia artemisiifolia, pre-emergence, 480 h, PRE, AMBEL, use rate 1 gai/ha, 20 DAT
[1] = 480 h, use rate 4 gai/ha, 20 DAT

Compound: COc1c(F)cc(F)c(F)c1Nc1nc(N)nc(C(C)(C)F)n1 [Compound I-1]
- inhibition at 2 g/ha (Abutilon theophrasti; 480 h, 20 DAT): 30%
- inhibition at 4 g/ha (Abutilon theophrasti; [1]): 50%
- inhibition at 1 g/ha (Abutilon theophrasti; use rate 1 gai/ha): 10%
- inhibition at 2 g/ha (Abutilon theophrasti): 10%
- inhibition at 1 g/ha (Galium aparine): 0%
- inhibition at 2 g/ha (Euphorbia heterophylla; 480 h, 20 DAT): 50%
- inhibition at 4 g/ha (Euphorbia heterophylla; [1]): 60%
- inhibition at 2 g/ha (Euphorbia heterophylla): 40%
- inhibition at 8 g/ha (Ipomoea hederacea; Ipomoea hederacea, pre-emergence, 480 h, use rate 8 gai/ha): 70%
- inhibition at 16 g/ha (Ipomoea hederacea; Ipomoea hederacea, pre-emergence, 480 h, use rate 16 gai/ha): 75%
- % activity (Ipomoea hederacea; use rate 16 gai/ha): 60%
- inhibition at 2 g/ha (Digitaria sanguinalis; 480 h, POST, DIGSA, 20 DAT): 0%
- inhibition at 4 g/ha (Digitaria sanguinalis; 480 h, POST, DIGSA, 20 DAT): 30%
- inhibition at 1 g/ha (Digitaria sanguinalis; DIGSA POST): 5%
- inhibition at 4 g/ha (Digitaria sanguinalis; DIGSA POST): 25%
- inhibition at 1 g/ha (Digitaria sanguinalis; POST, DIGSA): 0%
- inhibition at 2 g/ha (Digitaria sanguinalis; POST, DIGSA): 10%
- inhibition at 1 g/ha (SETFA): 60%
- inhibition at 1 g/ha (Polygonum convolvulus): 50%
- inhibition at 2 g/ha (Geranium pusillum; 480 h, POST, GERPU, use rate 2 gai/ha, 20 DAT, read-out: % activity): 0%
- inhibition at 4 g/ha (Geranium pusillum; 480 h, POST, GERPU, 20 DAT): 0%
- inhibition at 8 g/ha (Geranium pusillum; 480 h, POST, GERPU, use rate 8 gai/ha, 20 DAT, read-out: % activity): 50%
- inhibition at 16 g/ha (Geranium pusillum; 480 h, POST, GERPU, use rate 16 gai/ha, 20 DAT): 70%
- inhibition at 4 g/ha (Geranium pusillum; GERPU POST): 55%
- inhibition at 1 g/ha (Geranium pusillum; POST, GERPU, use rate 1 gai/ha): 30%
- inhibition at 2 g/ha (Setaria viridis; use rate 2 gai/ha): 5%
- inhibition at 4 g/ha (Setaria viridis; use rate 4 gai/ha): 70%
- inhibition at 16 g/ha (Commelina benghalensis): 75%
- inhibition at 1 g/ha (Ambrosia artemisiifolia): 10%
